Measurements taken from patent US20070224291A1, “Cancer treatment” (priority 2005, published 2007).

Key:
Ehrlich ascites tumor = test: Antitumor activity, transplantable Ehrlich ascites tumor (intraperitoneal); assay type: in vivo; settings: mice, reference medication, optimal therapeutic dose of 25 ml/kg
Protocol: (§1) The antitumor activity of the medication of the present invention was studied in mice and rats with transplantable tumors of Sarcoma 37, 45, and 180, and Ehrlich ascites tumor.
(§2) In the study of antitimor properties of the medication of the present invention, the medication was used in doses of 20 and 40 ml/kg, and 10 and 30 ml/kg in the tests on mice and rats, respectively. The general toxic action which the medication had on the organism of the tested animals was estimated by their outer appearance and behavior during the experiment, as well as by the Growth Ratio (GR) expressed in percent.
The numerical data obtained was processed statistically by Student-Fisher's method.

Sarcoma 180 = test: Antitumor activity, transplantable Sarcoma 180 (subcutaneous); assay type: in vivo; settings: mice, reference medication, identical experimental conditions
Protocol: as §1
(§3) Necrosis-free pieces of tumoral tissue (a peripheral part of a tumoral node) cut with scissors to form a homogeneous mass served as transplantants for solid models (Sarcomas 37, 45 and 180). A sterile physiological solution in the proportion of 1:3-1:4 was added to the tumor and the resulting suspension was introduced with a syringe subcutaneously to the animals. The transplantation was conducted in sterile box conditions using 12-14 days' tumor as a donor. The transplantation of sarcomas 37 and 180 was performed by means of subcutaneous introduction of 0.2-0.3 ml of the 20% tumoral suspension in a physiological solution to the axillary crease of each mouse. For the transplantation of Sarcoma 45, by 0.4-0.5 ml of suspension of tumoral cells was introduced subcutaneously (to the lateral area) of each rat. On the 4th-5th days after inoculation, when the transplanted tumor is usually pea-size, the animals were divided into test and control groups each having 8 mice and 10 rats. […] A day after the last injection of the medication, the animals were killed with ether, weighed, and the weight of tumors was measured separately. […]

Sarcoma 37 = test: Antitumor activity, transplantable Sarcoma 37 (subcutaneous); assay type: in vivo; settings: mice, reference medication, identical experimental conditions
Protocol: as §1, §3

Sarcoma 45 = test: Antitumor activity, transplantable Sarcoma 45 (subcutaneous); assay type: in vivo; settings: rats, reference medication, identical experimental conditions
Protocol: as §1, §3

[1] = in vivo
Protocol: as §2

GR, span over all tests [1]: −7.3 to −11
Structure (SMILES): O=c1[nH]cc(F)c(=O)[nH]1 [5-fluorouracil]
antitumor effect (inhibition of ascit accumulation) (Ehrlich ascites tumor): 70%
inhibition of tumor growth (Sarcoma 180): 45%
therapeutic effect (inhibition of tumor growth) (Sarcoma 37): 70%
inhibition of tumor growth (Sarcoma 45): 32%
